The nature of one data set: physchem. To be noted: 25 °C, water, thermodynamic from solid.
The nature of data set [1]: Determination of solubility in deionized water (HPLC, external standard). The note with it: for solubility at 30 min: 25 °C, water, thermodynamic from solid.
The subject of data set [2] is Aspergillus fumigatus AF293. Kind of data set: Lung Aspergillus fumigatus infection in immunosuppressed mice, intravenous administration. To be noted: for lung fungal load: mouse lung tissue, seven days later, mean ± SD; for responders at 20 mg/kg: Aspergillus fumigatus, AF293, in Mus musculus, iv.
Protocol: ICR male mice were injected intraperitoneally with cyclophosphamide 150 mg/kg and injected subcutaneously with dexamethasone 150 mg/kg for 10 consecutive days. At the same time, the blood was taken to measure the changes of peripheral white blood cells and neutrophils, and mice with neutrophils consistently lower than 100/μl were selected as successfully immunosuppressed mice. Immediately after the last injection, the mice were anesthetized with ethyl ether, and mice were transferred from the initial state of excitement to inhibition. After their bodies were relaxed, the mice were immediately taken. Left hand was used to grasp the mouse to make it stand upright, the middle finger pressed the mouth so that it could breath only with the nose, and the ring finger gently pressed the abdomen to move the diaphragm muscle upward. 30 μl of conidia suspension (Aspergillus fumigatus AF293, 3×10^6 conidia) was sent to the nostrils of the anesthetized mice by a micropipette to allow spontaneous inhalation. After the mouse returned to normal breathing, it was returned to the cage. […] The death of the mice was observed and the survival time was recorded. Seven days later, the mice were sacrificed and their lung tissues were taken to observe the fungal loads of Aspergillus fumigatus in the lungs of the mice.
In data set [3] the test system is Candida albicans ATCC10231. As to the kind of experiment: Candida albicans vaginitis in mice, intravenous administration. To be noted: logarithm of the CFU values, mean ± SD of 20 mice; for vaginal fungal load of mice, day 5: 20 mg/kg tail vein once a day for 5 days, day 5 after infection; for vaginal fungal load of mice, day 3: 20 mg/kg tail vein once a day, day 3 after infection.
Protocol: KM mice, weighing 18-22 g, female, provided by Hubei Experimental Animal Center.
The standard strain of Candida albicans was purchased from the American Type Culture
Collection, strain number ATCC10231.
Prior to being infected with Candida albicans, animals in each group were given subcutaneous injections of 0.5 ml of estradiol benzoate (2 mg/ml) for 6 consecutive days to allow them to enter the estrus phase. Injections were continued once every 2 days until the completion of the experiment. After 6 days, 20 μl of Candida albicans solution in a concentration of 3.5×10^6 CFU/ml was injected vaginally into each mouse, causing a vaginal infection model. From the first day after infection, each group of animals was given 20 mg/kg of the corresponding drug (calculated as posaconazole) in the tail vein at an administration volume of 0.1 ml/10 g once a day for 5 consecutive days. The model group was given an equal volume of solvent (physiological saline). On the 3rd and 5th days after infection, the vagina of mice were wiped with sterile cotton swabs. The cotton swabs were soaked in 0.9 ml physiological saline. The fungal solutions were diluted to 10-fold increments to give a series of concentrations, and then 100 μl of each concentration of the bacteria solutions was taken and inoculated on Sabourand's dextrose agar solid medium containing 0.5% (W/V) chloramphenicol to observe the fungal load of Candida albicans on the vagina.

In data set [4] the test system is Aspergillus fumigatus AF293. Kind of data set: Lung Aspergillus fumigatus infection in immunosuppressed mice, intragastric administration. To be noted: mouse lung tissue, seven days later, 20 mg/kg intragastric once daily for 5 days, mean ± SD.
Protocol: Aspergillus fumigatus AF293, from the Guangdong Provincial Microbial Culture Collection Center.
ICR male mice were injected intraperitoneally with cyclophosphamide 150 mg/kg and injected subcutaneously with dexamethasone 150 mg/kg for 10 consecutive days. At the same time, the blood was taken to measure the changes of peripheral white blood cells and neutrophils, and mice with neutrophils consistently lower than 100/μl were selected as successfully immunosuppressed mice. Immediately after the last injection, the mice were anesthetized with ethyl ether, and mice were transferred from the initial state of excitement to inhibition. After their bodies were relaxed, the mice were immediately taken. Left hand was used to grasp the mouse to make it stand upright, the middle finger pressed the mouth so that it could breath only with the nose, and the ring finger gently pressed the abdomen to move the diaphragm muscle upward. 30 μl of conidia suspension (Aspergillus fumigatus AF293, 3×10^6 conidia) was sent to the nostrils of the anesthetized mice by a micropipette to allow spontaneous inhalation. After the mouse returned to normal breathing, it was returned to the cage. […] Seven days later, the mice were sacrificed and their lung tissues were taken to observe the fungal loads of Aspergillus fumigatus in the lungs of the mice.
The subject of data set [5] is Candida albicans ATCC10231. Kind of data set: Candida albicans vaginitis in mice, intragastric administration. It counts as in vivo, KM mice. To be noted: logarithm of the CFU values, mean ± SD of 20 mice; for vaginal fungal load of mice, day 15: 20 mg/kg intragastric once a day for 15 days; for vaginal fungal load of mice, day 3 / vaginal fungal load of mice, day 5 / vaginal fungal load of mice, day 7 / vaginal fungal load of mice, day 11: 20 mg/kg intragastric once a day.

For data set [6], the system named is Aspergillus Fumigutus (AF) strains. Kind of data set: Aspergillus fumigatus keratitis in rats, intravenous administration. The note with it: 10 mg/kg tail vein once daily for 5 days; mean ± SD of 10 rats.
For data set [7], the system named is Candida albicans ATCC10231. Kind of data set: Systemic fungal infection in mice, intragastric administration. To be noted: for responders at 20 mg/kg: Candida albicans, ATCC10231, po. The format is in vivo, ICR mice.
Data set [8] is described as follows: In vitro metabolic stability in human plasma. The format is in vitro ADME. To be noted: human, plasma, 37° C., 10 μM compound, read-out: Human plasma T1/2. The method, boiled down:
(§1)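 Human or rat plasma, preincubated 5 min at 37 °C, or intestinal S9 at 37 °C, spiked from 1 mM stock; triplicates sampled at 1, 2, 5, 15 and 30 min into cold internal standard. HPLC quantitation; half-life by non-compartmental analysis.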

Data set [9] is described as follows: In vitro metabolic stability in rat plasma. It counts as in vitro ADME. To be noted: rat, plasma, 37° C., 10 μM compound, read-out: Rat plasma T1/2. Summed up:
as §1

Data set [10] can be described thus: In vitro metabolic stability in human intestine S9. It counts as in vitro ADME. The note with it: human; 37° C., 10 μM compound, 1 mg/mL S9, NADPH regeneration system; read-out: Human intestine S9 T1/2. The method, boiled down:
as §1

Data set [11] is described as follows: In vitro metabolic stability in rat intestine S9. The format is in vitro ADME. The note with it: rat, pH 7.4; 37° C., 10 μM compound, 1 mg/mL S9, NADPH regeneration system; read-out: Rat intestine S9 T1/2. The method, boiled down:
as §1

A short description of data set [12]: Pharmacokinetics after single intravenous administration to rats. It counts as in vivo, SD rats. The note with it: posaconazole in saline solution as a control, tail vein. The protocol:
Administration amount: 2.5 mg/kg (calculated as posaconazole)
Administration volume: 2.5 ml/kg
Drug concentration: 1 mg/mL
Administration vehicle: normal saline
Administration route: tail vein injection
Experimental animals: SD rats, SPF grade, weighing 180-220 g, equal amount of male and female. Rats were randomly divided into groups of 6 with 3 males and 3 females.
Experimental protocol: blood samples were collected at different time points after tail vein administration and plasma posaconazole concentrations were measured.

Where [13] appears, read: 24 h, read-out: survival rate of mice, day 1, 20 mg/kg intragastric once daily for 5 days, day 1.
[14] abbreviates: 48 h, read-out: survival rate of mice, day 2, 20 mg/kg intragastric once daily for 5 days, day 2.
[15] abbreviates: 72 h, read-out: survival rate of mice, day 3, 20 mg/kg intragastric once daily for 5 days, day 3.
Where [16] appears, read: 96 h, read-out: survival rate of mice, day 4, 20 mg/kg intragastric once daily for 5 days, day 4.
[17] abbreviates: 120 h, read-out: survival rate of mice, day 5, 20 mg/kg intragastric once daily for 5 days, day 5.
The mark [18] stands for this setting: 144 h, read-out: survival rate of mice, day 6, 20 mg/kg intragastric once daily for 5 days, day 6.
The mark [19] stands for this setting: 168 h, read-out: survival rate of mice, day 7, 20 mg/kg intragastric once daily for 5 days, day 7.

The structures appear in SMILES notation. Read-outs that look alike come from different tables or passages of the source. Bounds are passed on as bounds.

`CC[C@@H]([C@H](C)O)n1ncn(-c2ccc(N3CCN(c4ccc(OC[C@@H]5CO[C@@](Cn6c[n+](C(C)OC(=O)OP(=O)(O)O)cn6)(c6ccc(F)cc6F)C5)cc4)CC3)cc2)c1=O.[Na+].[Na+]` (stereo partly shown) [ST0039] came in with a Solubility in “physchem” greater than 50 mg/mL.
`CC[C@@H]([C@H](C)O)n1ncn(-c2ccc(N3CCN(c4ccc(OC[C@@H]5CO[C@@](Cn6c[n+](C(C)OC(=O)N(C)c7ncccc7COC(=O)[C@@H](N)CCCN)cn6)(c6ccc(F)cc6F)C5)cc4)CC3)cc2)c1=O` (stereo partly shown) [ST0011] came in with a Solubility in data set [1] (25±2° C., after 30 min) greater than 50 mg/mL. Also, the “survival rate of mice, day 1” value worked out at 100% in data set [2] (20 mg/kg tail vein once daily for 5 days, day 1) and 100% in data set [7] (20 mg/kg intragastric once daily for 5 days, day 1). For the same compound, the “survival rate of mice, day 2” value in data set [2] (20 mg/kg tail vein once daily for 5 days, day 2) worked out at 100%; in data set [7] (20 mg/kg intragastric once daily for 5 days, day 2) it was 100%. Moreover, the “survival rate of mice, day 3” value in [2] (20 mg/kg tail vein once daily for 5 days, day 3) is 100%; in data set [7] (20 mg/kg intragastric once daily for 5 days, day 3) it was 90%. In addition, the “survival rate of mice, day 4” value in data set [2] (20 mg/kg tail vein once daily for 5 days, day 4) came to 100%; in [7] (20 mg/kg intragastric once daily for 5 days, day 4) it was 80%. The “survival rate of mice, day 5” value in data set [2] (20 mg/kg tail vein once daily for 5 days, day 5) came out at 90%; in [7] (20 mg/kg intragastric once daily for 5 days, day 5), 70%. Besides, the “survival rate of mice, day 6” value stood at 90% in data set [2] (20 mg/kg tail vein once daily for 5 days, day 6) and 60% in [7] (20 mg/kg intragastric once daily for 5 days, day 6). For the same compound, the lung fungal load in [2] (20 mg/kg tail vein once daily for 5 days, 20 mg/kg) is on record as 1.46 ± 0.27 10^4 CFU/ml; in [4] (20 mg/kg), 3.47 ± 0.71 10^4 CFU/ml. The “vaginal fungal load of mice, day 5” value is given as 3.75 ± 0.47 in [3] (20 mg/kg) and 4.35 ± 0.47 in [5] (20 mg/kg). The “vaginal fungal load of mice, day 3” value in data set [3] (20 mg/kg) was 4.09 ± 0.39; in data set [5] (20 mg/kg), 4.18 ± 0.27. Also, the “vaginal fungal load of mice, day 15” value in [5] (20 mg/kg) was found to be 2.81 ± 0.27. Further, the “vaginal fungal load of mice, day 7” value in data set [5] (20 mg/kg) amounted to 3.85 ± 0.67. Also, in data set [5] (20 mg/kg), the “vaginal fungal load of mice, day 11” value is recorded as 3.29 ± 0.20. The “Amount of active fungi in cornea at day 7” value in data set [6] is given as 1.79 ± 0.44 10^3 CFU/ml. The “survival rate of mice, day 7” value in [7] (20 mg/kg intragastric once daily for 5 days, day 7) worked out at 60%.
As for `CC[C@@H](C(C)OC(=O)OC(C)OC(=O)CCOP(=O)([O-])[O-])n1ncn(-c2ccc(N3CCN(c4ccc(OC[C@@H]5CO[C@@](Cn6cncn6)(c6ccc(F)cc6F)C5)cc4)CC3)cc2)c1=O.[Na+].[Na+]` (stereo partly shown) [ST0066], the half-life at 10 µM in [8] is 11.3 ± 2.27 min; in data set [9], 12.6 ± 4.54 min; in data set [10], 40.4 ± 5.21 min; in data set [11], 36.6 ± 8.66 min. Further, the responders at 20 mg/kg came to 80% in data set [7] (setting [13]); 80% in [7] (setting [14]); 70% in data set [7] (setting [15]); 70% in data set [7] (setting [16]); 70% in data set [7] (setting [17]); 60% in [7] (setting [18]). Moreover, in [7] (setting [19]), the responders at 20 mg/kg stood at 60%. In addition, the Solubility in the data set “physchem” is greater than 50 mg/mL.
Take `CC[C@@H]([C@H](C)O)n1ncn(-c2ccc(N3CCN(c4ccc(OC[C@@H]5CO[C@@](Cn6cncn6)(c6ccc(F)cc6F)C5)cc4)CC3)cc2)c1=O` [Posaconazole, posaconazole]: the solubility at 30 min in data set [1] is less than 1 mg/mL. Also, in data set [12], the plasma posaconazole detection entry was “not detected”.
As for `CC[C@@H]([C@H](C)O)n1ncn(-c2ccc(N3CCN(c4ccc(OC[C@@H]5CO[C@@](Cn6c[n+](C(C)OC(=O)N(C)c7ccccc7COC(=O)[C@@H](N)CCCN)cn6)(c6ccc(F)cc6F)C5)cc4)CC3)cc2)c1=O` (stereo partly shown) [ST0008], in [1], the solubility at 30 min is greater than 50 mg/mL. The responders at 20 mg/kg in [2] (24 h, read-out: survival rate of mice, day 1, 20 mg/kg tail vein once daily for 5 days, day 1) was 100%; in [2] (48 h, read-out: survival rate of mice, day 2, 20 mg/kg tail vein once daily for 5 days, day 2) it was 100%; in data set [2] (72 h, read-out: survival rate of mice, day 3, 20 mg/kg tail vein once daily for 5 days, day 3), 100%; in [2] (96 h, read-out: survival rate of mice, day 4, 20 mg/kg tail vein once daily for 5 days, day 4), 90%; in data set [2] (120 h, read-out: survival rate of mice, day 5, 20 mg/kg tail vein once daily for 5 days, day 5), 80%; in [2] (144 h, read-out: survival rate of mice, day 6, 20 mg/kg tail vein once daily for 5 days, day 6), 80%. The responders at 20 mg/kg in data set [2] (168 h, read-out: survival rate of mice, day 7, 20 mg/kg tail vein once daily for 5 days, day 7) came to 70%; in [7] (setting [13]), 100%; in data set [7] (setting [14]), 90%; in [7] (setting [15]), 90%; in data set [7] (setting [16]) it was 80%; in data set [7] (setting [17]) it was 80%. Besides, the responders at 20 mg/kg in data set [7] (setting [18]) and in data set [7] (setting [19]) was 60% throughout. Besides, the results for the lung fungal load in data set [2] (20 mg/kg tail vein once daily for 5 days) and in data set [4] were 2.07 ± 0.42 10^4 CFU/ml and 3.49 ± 0.64 10^4 CFU/ml, respectively. The entries for the “vaginal fungal load of mice, day 5” value in data set [3] and in [5] were 3.86 ± 0.21 and 4.34 ± 0.47, respectively. In addition, the results for the “vaginal fungal load of mice, day 3” value in data set [3] and in [5] were 4.05 ± 0.25 and 4.21 ± 0.32, respectively. In data set [5], the “vaginal fungal load of mice, day 15” value stood at 2.68 ± 0.18. The “vaginal fungal load of mice, day 7” value in [5] was found to be 3.85 ± 0.35. Further, in data set [5], the “vaginal fungal load of mice, day 11” value was 3.31 ± 0.29. In data set [6], the “Amount of active fungi in cornea at day 7” value is on record as 2.59 ± 0.37 10^3 CFU/ml.

Usually Solubility stands for the dissolved amount per volume that the medium holds. High values mean much dissolved substance, low ones little dissolved substance. What is called solubility is the concentration that dissolves in the medium under given conditions. The low end stands for little dissolved substance, the high end for much dissolved substance.

The values above are taken from patent publication US10517867B2, “Posaconazole derivative, pharmaceutical composition and use thereof” (priority 2016, dated 2019).
